Measured values as given in US6737383B1, “Herbicidal oxadiazolidines” (priority 1999, dated 2004).

Experiments:
[1] = system: morningglory; assay: Test B pre/postemergence morningglory; format: in vivo, Ipomoea hederacea; conditions: Preemergence
Procedure, shortened: (§1)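 Response is a visual 0-to-10 score relative to untreated plants, where 0 means no effect and 10 means complete control, taken twelve to sixteen days after application. Treatments went onto soil at planting and onto foliage of 1- to 4-leaf plants, using a surfactant-containing non-phytotoxic solvent.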

[2] = system: surinam grass; assay: Test B pre/postemergence surinam grass; format: in vivo, Brachiaria decumbens; conditions: Preemergence
Procedure, shortened: as §1

[3] = system: rice; assay: Test B flood test rice; format: in vivo, Oryza sativa
Procedure, shortened: (§2)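 Plants were grown to the 2-leaf stage before treatment with test chemical, then held in a greenhouse for twelve to sixteen days. Injury was visually rated against untreated controls on a 0–10 scale, where 0 is no effect and 10 is complete control.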

[4] = system: wheat; assay: Test B pre/postemergence wheat; format: in vivo, Triticum aestivum; conditions: Preemergence
Procedure, shortened: as §1

[5] = system: wild oat; assay: Test B pre/postemergence wild oat; format: in vivo, Avena fatua; conditions: Preemergence
Procedure, shortened: as §1

[6] = system: rape; assay: Test B pre/postemergence rape; format: in vivo, Brassica napus; conditions: Preemergence
Procedure, shortened: as §1

[7] = system: soybean; assay: Test B pre/postemergence soybean; format: in vivo, Glycine max; conditions: Preemergence
Procedure, shortened: as §1

[8] = system: bedstraw; assay: Test B pre/postemergence bedstraw; format: in vivo, Galium aparine; conditions: Preemergence
Procedure, shortened: as §1

[9] = system: smallflower flatsedge; assay: Test B flood test smallflower flatsedge; format: in vivo, Cyperus difformis
Procedure, shortened: as §2

[10] = system: velvetleaf; assay: Test B pre/postemergence velvetleaf; format: in vivo, Abutilon theophrasti; conditions: Preemergence
Procedure, shortened: as §1

[11] = system: bamyardgrass; assay: Test B flood test barnyardgrass; format: in vivo, Echinochloa crus-galli
Procedure, shortened: as §2

[12] = system: purple nutsedge; assay: Test B pre/postemergence purple nutsedge; format: in vivo, Cyperus rotundus; conditions: Preemergence
Procedure, shortened: as §1

[13] = system: sugar beet; assay: Test B pre/postemergence sugar beet; format: in vivo, Beta vulgaris; conditions: Preemergence
Procedure, shortened: as §1

[14] = system: giant foxtail; assay: Test B pre/postemergence giant foxtail; format: in vivo, Setaria faberii; conditions: Preemergence
Procedure, shortened: as §1

[15] = system: pigweed; assay: Test B pre/postemergence pigweed; format: in vivo, Amaranthus retroflexus; conditions: Preemergence
Procedure, shortened: as §1

[16] = system: blackgrass; assay: Test B pre/postemergence blackgrass; format: in vivo, Alopecurus myosuroides; conditions: Preemergence
Procedure, shortened: as §1

[17] = system: duck salad; assay: Test B flood test duck salad; format: in vivo, Heteranthera limosa
Procedure, shortened: as §2

[18] = system: cocklebur; assay: Test B pre/postemergence cocklebur; format: in vivo, Xanthium strumarium; conditions: Preemergence
Procedure, shortened: as §1

[19] = system: crabgrass; assay: Test B pre/postemergence crabgrass; format: in vivo, Digitaria sanguinalis; conditions: Preemergence
Procedure, shortened: as §1

[20] = system: corn; assay: Test B pre/postemergence corn; format: in vivo, Zea mays; conditions: Preemergence
Procedure, shortened: as §1

[21] = system: maize hybrid P33G26; assay: Test G maize injury with safener-treated seed; conditions: in vivo
Protocol: In soil-containing pots were planted seeds of maize hybrid P33G26 that was previously treated with dichlomid, fenchlorazole-ethyl, and naphthalic anhydride (or no safener). The soil surface was then treated with several rates of Compound 131 or Compound 146 dissolved in a non-phytotoxic solvent using a flat-fan sprayer calibrated to deliver 310 L/ha. Treatmemtes were replicated 4 or 5 times. The treated and untreated plants were allowed to grow in a greenhouse using supplementary artificial lighting with a day-length of 14 hours, with the temperature maintained at about 27° C. during the day and 24° C. during the night. Plants were kept watered with a dilute balanced fertilizer solution.
At 28 days after application, the treated plants were compared with untreated controls and vissually evaluated.

[22] = Rate 62 g/ha, scale of 0 to 10 where 0 is no effect and 10 is complete control
[23] = Rate 125 g/ha, scale of 0 to 10 where 0 is no effect and 10 is complete control
[24] = Rate 250 g/ha, scale 0 (no effect) to 10 (complete control)
[25] = Rate 500 g/ha, scale of 0 to 10 where 0 is no effect and 10 is complete control
[26] = Pre-emergence, Rate 62 g/ha, scale 0 to 10, 0 is no effect, 10 is complete control
[27] = Rate 125 g/ha, Pre-emergence section (flood test species), scale 0 to 10, 0 no effect, 10 complete control
[28] = Rate 250 g/ha, Pre-emergence (flood test species), scale 0 to 10, 0 is no effect, 10 is complete control
[29] = Rate 500 g/ha, Pre-emergence section of Table B, 0 to 10 scale (0 no effect, 10 complete control)
[30] = Rate 500 g/ha, scale 0 to 10 (0 no effect, 10 complete control)
[31] = Rate 1000 g/ha, scale 0 to 10 (0 no effect, 10 complete control)

Structure (SMILES): CC(C)N(C(=O)n1oc(=O)n(CC2CCCCO2)c1=O)c1ccc(F)cc1F (centres unmarked) [Compound 715]
- Morningglory plant response rating [1, 22]: 0
- Plant response rating, Morningglory [1, 23]: 1
- Morningglory plant response rating [1, 24]: 2
- B. signalgrass plant response rating [2, 22]: 8
- Plant response rating, B. signalgrass [2, 23]: 8
- B. signalgrass plant response rating [2, 24]: 9
- Plant response rating, B. signalgrass [2, 25]: 10
- Rice plant response rating [3, 26]: 0
- Rice plant response rating [3, 27]: 0
- Rice plant response rating [3, 28]: 0
- Rice plant response rating [3, 29]: 0
- Wheat plant response rating [4, 22]: 0
- Plant response rating, Wheat [4, 23]: 0
- Wheat plant response rating [4, 24]: 3
- Wild oats plant response rating [5, 22]: 9
- Plant response rating, Wild oats [5, 23]: 9
- Wild oats plant response rating [5, 24]: 9
- Rape plant response rating [6, 22]: 2
- Plant response rating, Rape [6, 23]: 8
- Rape plant response rating [6, 24]: 8
- Soybean plant response rating [7, 22]: 0
- Plant response rating, Soybean [7, 23]: 0
- Soybean plant response rating [7, 24]: 0
- Bedstraw plant response rating [8, 22]: 0
- Plant response rating, Bedstraw [8, 23]: 0
- Bedstraw plant response rating [8, 24]: 0
- S. Flatsedge plant response rating [9, 26]: 0
- S. Flatsedge plant response rating [9, 27]: 0
- S. Flatsedge plant response rating [9, 28]: 0
- S. Flatsedge plant response rating [9, 29]: 0
- Velvetleaf plant response rating [10, 22]: 0
- Plant response rating, Velvetleaf [10, 23]: 5
- Velvetleaf plant response rating [10, 24]: 6
- Barnyardgrass plant response rating [11, 26]: 0
- Barnyardgrass plant response rating [11, 27]: 0
- Barnyardgrass plant response rating [11, 28]: 0
- Barnyardgrass plant response rating [11, 29]: 0
- Nutsedge plant response rating [12, 22]: 0
- Plant response rating, Nutsedge [12, 23]: 0
- Nutsedge plant response rating [12, 24]: 0
- Sugarbeets plant response rating [13, 22]: 4
- Plant response rating, Sugarbeets [13, 23]: 5
- Sugarbeets plant response rating [13, 24]: 7
- Giant foxtail plant response rating [14, 22]: 10
- Plant response rating, Giant foxtail [14, 23]: 10
- Giant foxtail plant response rating [14, 24]: 10
- Redroot pigweed plant response rating [15, 22]: 8
- Plant response rating, Redroot pigweed [15, 23]: 9
- Redroot pigweed plant response rating [15, 24]: 10
- Blackgrass plant response rating [16, 22]: 9
- Plant response rating, Blackgrass [16, 23]: 9
- Blackgrass plant response rating [16, 24]: 9
- Plant response rating, Blackgrass [16, 25]: 10
- Ducksalad plant response rating [17, 26]: 0
- Ducksalad plant response rating [17, 27]: 0
- Ducksalad plant response rating [17, 28]: 0
- Ducksalad plant response rating [17, 29]: 0
- Cocklebur plant response rating [18, 22]: 0
- Plant response rating, Cocklebur [18, 23]: 0
- Cocklebur plant response rating [18, 24]: 0
- Plant response rating, Cocklebur [18, 25]: 0
- Crabgrass plant response rating [19, 22]: 9
- Plant response rating, Crabgrass [19, 23]: 9
- Crabgrass plant response rating [19, 24]: 10
- Corn plant response rating [20, 22]: 0
- Plant response rating, Corn [20, 23]: 0
- Corn plant response rating [20, 24]: 2

Structure (SMILES): COC(=O)C(c1ccccc1)n1c(=O)on(C(=O)N(c2ccc(Cl)cc2)C(C)C)c1=O (centres unmarked) [Compound 724]
- Plant response rating, Morningglory [1, 23]: 0
- Morningglory plant response rating [1, 24]: 0
- Morningglory plant response rating [1, 30]: 0
- Plant response rating, Morningglory [1, 31]: 0
- Plant response rating, B. signalgrass [2, 23]: 0
- B. signalgrass plant response rating [2, 24]: 0
- B. signalgrass plant response rating [2, 30]: 0
- Plant response rating, B. signalgrass [2, 31]: 0
- Rice plant response rating [3, 26]: 0
- Rice plant response rating [3, 27]: 0
- Rice plant response rating [3, 28]: 0
- Rice plant response rating [3, 29]: 0
- Plant response rating, Wheat [4, 23]: 0
- Wheat plant response rating [4, 24]: 0
- Wheat plant response rating [4, 30]: 0
- Plant response rating, Wheat [4, 31]: 0
- Plant response rating, Wild oats [5, 23]: 0
- Wild oats plant response rating [5, 24]: 0
- Wild oats plant response rating [5, 30]: 0
- Plant response rating, Wild oats [5, 31]: 0
- Plant response rating, Rape [6, 23]: 0
- Rape plant response rating [6, 24]: 0
- Rape plant response rating [6, 30]: 0
- Plant response rating, Rape [6, 31]: 0
- Plant response rating, Soybean [7, 23]: 0
- Soybean plant response rating [7, 24]: 0
- Soybean plant response rating [7, 30]: 0
- Plant response rating, Soybean [7, 31]: 0
- Plant response rating, Bedstraw [8, 23]: 0
- Bedstraw plant response rating [8, 24]: 0
- Bedstraw plant response rating [8, 30]: 0
- Plant response rating, Bedstraw [8, 31]: 0
- S. Flatsedge plant response rating [9, 26]: 0
- S. Flatsedge plant response rating [9, 27]: 0
- S. Flatsedge plant response rating [9, 28]: 0
- S. Flatsedge plant response rating [9, 29]: 0
- Plant response rating, Velvetleaf [10, 23]: 0
- Velvetleaf plant response rating [10, 24]: 0
- Velvetleaf plant response rating [10, 30]: 0
- Plant response rating, Velvetleaf [10, 31]: 0
- Barnyardgrass plant response rating [11, 26]: 0
- Barnyardgrass plant response rating [11, 27]: 0
- Barnyardgrass plant response rating [11, 28]: 0
- Barnyardgrass plant response rating [11, 29]: 0
- Plant response rating, Nutsedge [12, 23]: 0
- Nutsedge plant response rating [12, 24]: 0
- Nutsedge plant response rating [12, 30]: 0
- Plant response rating, Nutsedge [12, 31]: 0
- Plant response rating, Sugarbeets [13, 23]: 0
- Sugarbeets plant response rating [13, 24]: 0
- Sugarbeets plant response rating [13, 30]: 0
- Plant response rating, Sugarbeets [13, 31]: 0
- Plant response rating, Giant foxtail [14, 23]: 0
- Giant foxtail plant response rating [14, 24]: 7
- Giant foxtail plant response rating [14, 30]: 9
- Plant response rating, Giant foxtail [14, 31]: 10
- Plant response rating, Redroot pigweed [15, 23]: 0
- Redroot pigweed plant response rating [15, 24]: 0
- Redroot pigweed plant response rating [15, 30]: 0
- Plant response rating, Redroot pigweed [15, 31]: 3
- Plant response rating, Blackgrass [16, 23]: 0
- Blackgrass plant response rating [16, 24]: 0
- Blackgrass plant response rating [16, 30]: 0
- Plant response rating, Blackgrass [16, 31]: 2
- Ducksalad plant response rating [17, 26]: 0
- Ducksalad plant response rating [17, 27]: 0
- Ducksalad plant response rating [17, 28]: 0
- Ducksalad plant response rating [17, 29]: 0
- Plant response rating, Cocklebur [18, 23]: 0
- Cocklebur plant response rating [18, 24]: 0
- Cocklebur plant response rating [18, 30]: 0
- Plant response rating, Cocklebur [18, 31]: 0
- Plant response rating, Crabgrass [19, 23]: 3
- Crabgrass plant response rating [19, 24]: 7
- Crabgrass plant response rating [19, 30]: 7
- Plant response rating, Crabgrass [19, 31]: 9
- Plant response rating, Corn [20, 23]: 0
- Corn plant response rating [20, 24]: 0
- Corn plant response rating [20, 30]: 0
- Plant response rating, Corn [20, 31]: 0

Structure (SMILES): O=C1OC(=O)c2cccc3cccc1c23 [naphthalic anhydride, reference compound]
- Effect of safener seed treatment on corn germination [21]: severely inhibited corn germination
- Safening effect on maize injury [21]: safened against the herbicide damage
